Legend:
Type in all cases: in vivo
[1] = system: pigweed (Amaranthus retroflexus); experiment: Test A preemergence; conditions: 0 to 100 scale, 0 no effect, 100 complete control, approx. 10 days
Source text: (§1) Seeds of barnyardgrass (Echinochloa crus-galli), large crabgrass (Digitaria sanguinalis), giant foxtail (Setaria faberii), morningglory (Ipomoea spp.), pigweed (Amaranthus retroflexus), velvetleaf (Abutilon theophrasti), wheat (Triticum aestivum) and corn (Zea mays) were planted into a blend of loam soil and sand and treated preemergence with a directed soil spray using test chemicals formulated in a non-phytotoxic solvent mixture which included a surfactant. At the same time these species were also treated with postemergence applications of test compounds formulated in the same manner. Plants ranged in height from 2 to 10 cm and were in the one- to two-leaf stage for the postemergence treatments. Treated plants and untreated controls were maintained in a greenhouse for approximately 10 days, after which time all treated plants were compared to untreated controls and visually evaluated for injury. Plant response ratings, summarized in Table A, are based on a 0 to 100 scale where 0 is no effect and 100 is complete control.

[2] = system: velvetleaf (Abutilon theophrasti); experiment: Test A preemergence; conditions: 0 to 100 scale, 0 no effect, 100 complete control, approx. 10 days
Source text: as §1

[3] = system: large crabgrass (Digitaria sanguinalis); experiment: Test A preemergence; conditions: 0 to 100 scale, 0 no effect, 100 complete control, approx. 10 days
Source text: as §1

[4] = system: wheat (Triticum aestivum); experiment: Test A preemergence; conditions: 0 to 100 scale, 0 no effect, 100 complete control, approx. 10 days
Source text: as §1

corn (Zea mays) [5] = experiment: Test A preemergence; conditions: 0 to 100 scale, 0 no effect, 100 complete control, approx. 10 days
Source text: as §1

[6] = system: giant foxtail (Setaria faberii); experiment: Test A preemergence; conditions: 0 to 100 scale, 0 no effect, 100 complete control, approx. 10 days
Source text: as §1

[7] = system: barnyardgrass (Echinochloa crus-galli); experiment: Test A preemergence; conditions: 0 to 100 scale, 0 no effect, 100 complete control, approx. 10 days
Source text: as §1

[8] = system: morningglory (Ipomoea spp.); experiment: Test A preemergence; conditions: 0 to 100 scale, 0 no effect, 100 complete control, approx. 10 days
Source text: as §1

[9] = system: pigweed (Amaranthus retroflexus); experiment: Test A postemergence; conditions: 0 to 100 scale, 0 no effect, 100 complete control, approx. 10 days
Source text: as §1

[10] = system: velvetleaf (Abutilon theophrasti); experiment: Test A postemergence; conditions: 0 to 100 scale, 0 no effect, 100 complete control, approx. 10 days
Source text: as §1

[11] = system: large crabgrass (Digitaria sanguinalis); experiment: Test A postemergence; conditions: 0 to 100 scale, 0 no effect, 100 complete control, approx. 10 days
Source text: as §1

[12] = system: wheat (Triticum aestivum); experiment: Test A postemergence; conditions: 0 to 100 scale, 0 no effect, 100 complete control, approx. 10 days
Source text: as §1

corn (Zea mays) [13] = experiment: Test A postemergence; conditions: 0 to 100 scale, 0 no effect, 100 complete control, approx. 10 days
Source text: as §1

[14] = system: giant foxtail (Setaria faberii); experiment: Test A postemergence; conditions: 0 to 100 scale, 0 no effect, 100 complete control, approx. 10 days
Source text: as §1

[15] = system: barnyardgrass (Echinochloa crus-galli); experiment: Test A postemergence; conditions: 0 to 100 scale, 0 no effect, 100 complete control, approx. 10 days
Source text: as §1

[16] = system: morningglory (Ipomoea spp.); experiment: Test A postemergence; conditions: 0 to 100 scale, 0 no effect, 100 complete control, approx. 10 days
Source text: as §1

rice (Oryza sativa) = experiment: Test B flooded paddy test; conditions: Flood, scale 0 to 100
Source text: (§2) Plant species in the flooded paddy test consisted of rice (Oryza sativa), umbrella sedge (Cyperus difformis), ducksalad (Heteranthera limosa) and barnyardgrass (Echinochloa crus-galli) grown to the 2-leaf stage for testing. At time of treatment, test pots were flooded to 3 cm above the soil surface, treated by application of test compounds directly to the paddy water, and then maintained at that water depth for the duration of the test. Treated plants and controls were maintained in a greenhouse for 13 to 15 days, after which time all species were compared to controls and visually evaluated. Plant response ratings, summarized in Table B, are based on a scale of 0 to 100 where 0 is no effect and 100 is complete control. A dash (-) response means no test result.

[17] = system: umbrella sedge (Cyperus difformis); experiment: Test B flooded paddy test; conditions: Flood, scale 0 to 100
Source text: as §2

[18] = system: ducksalad (Heteranthera limosa); experiment: Test B flooded paddy test; conditions: Flood, scale 0 to 100
Source text: as §2

[19] = system: barnyardgrass (Echinochloa crus-galli); experiment: Test B flooded paddy test; conditions: Flood
Source text: as §2

[20] = 250 g ai/ha, scale 0 to 100 (0 no effect, 100 complete control)

COCCn1c(-c2cccc(F)c2)c(Cl)nc(C(=O)C2=C(O)CCCC2=O)c1=O [Compound 7, 5-chloro-6-(3-fluorophenyl)-3-[(2-hydroxy-6-oxo-1-cyclohexen-1-yl)carbonyl]-1-(2-methoxyethyl)-2(1H)pyrazinone]
0: Plant response rating, Pigweed ([1]; 125 g ai/ha) | Plant response rating, Velvetleaf ([2]; 125 g ai/ha) | Plant response rating, Crabgrass, Large ([3]; 125 g ai/ha) | Plant response rating, Crabgrass, Large ([3]; 500 g ai/ha) | Plant response rating, Wheat ([4]; 125 g ai/ha) | Plant response rating, Wheat ([4]; 500 g ai/ha) | Plant response rating, Corn (corn (Zea mays) [5]; 125 g ai/ha) | Plant response rating, Corn (corn (Zea mays) [5]; 500 g ai/ha) | Plant response rating, Foxtail, Giant ([6]; 125 g ai/ha) | Plant response rating, Foxtail, Giant ([6]; 500 g ai/ha) | Plant response rating, Barnyardgrass ([7]; 125 g ai/ha) | Plant response rating, Morningglory ([8]; 125 g ai/ha) | Plant response rating, Crabgrass, Large ([11]; 125 g ai/ha) | Plant response rating, Wheat ([12]; 125 g ai/ha) | Plant response rating, Wheat ([12]; 500 g ai/ha) | Plant response rating, Corn (corn (Zea mays) [13]; 125 g ai/ha) | Plant response rating, Foxtail, Giant ([14]; 125 g ai/ha) | Plant response rating, Foxtail, Giant ([14]; 500 g ai/ha) | Plant response rating, Rice (rice (Oryza sativa); 31 g ai/ha) | Plant response rating, Rice (rice (Oryza sativa); 62 g ai/ha) | Plant response rating, Rice (rice (Oryza sativa); 125 g ai/ha) | Plant response rating, Sedge, Umbrella ([17]; 31 g ai/ha) | Plant response rating, Ducksalad ([18]; 31 g ai/ha) | Plant response rating, Barnyardgrass ([19]; 31 g ai/ha, scale 0 to 100) | Plant response rating, Barnyardgrass ([19]; 62 g ai/ha, scale 0 to 100)
90: Plant response rating, Pigweed ([9]; 500 g ai/ha) | Plant response rating, Morningglory ([16]; 500 g ai/ha)
100: Plant response rating, Velvetleaf ([10]; 125 g ai/ha) | Plant response rating, Velvetleaf ([10]; 500 g ai/ha)
15: Plant response rating, Rice (rice (Oryza sativa); 250 g ai/ha)
80: Plant response rating, Pigweed ([9]; 125 g ai/ha) | Plant response rating, Barnyardgrass ([15]; 500 g ai/ha) | Plant response rating, Morningglory ([16]; 125 g ai/ha) | Plant response rating, Ducksalad ([18]; 250 g ai/ha)
20: Plant response rating, Velvetleaf ([2]; 500 g ai/ha) | Plant response rating, Morningglory ([8]; 500 g ai/ha) | Plant response rating, Corn (corn (Zea mays) [13]; 500 g ai/ha) | Plant response rating, Barnyardgrass ([15]; 125 g ai/ha) | Plant response rating, Sedge, Umbrella ([17]; 62 g ai/ha) | Plant response rating, Barnyardgrass [19, 20]
10: Plant response rating, Barnyardgrass ([7]; 500 g ai/ha) | Plant response rating, Crabgrass, Large ([11]; 500 g ai/ha) | Plant response rating, Barnyardgrass ([19]; 125 g ai/ha, scale 0 to 100)
75: Plant response rating, Sedge, Umbrella ([17]; 250 g ai/ha)
50: Plant response rating, Pigweed ([1]; 500 g ai/ha) | Plant response rating, Sedge, Umbrella ([17]; 125 g ai/ha) | Plant response rating, Ducksalad ([18]; 125 g ai/ha)
40: Plant response rating, Ducksalad ([18]; 62 g ai/ha)

O=C1CCCC(O)=C1C(=O)c1nc(Cl)c(-c2cccc(F)c2)n(C2CCCCC2)c1=O [Compound 2, 5-chloro-1-cyclohexyl-6-(3-fluorophenyl)-3-[(2-hydroxy-6-oxo-1-cyclohexen-1-yl)carbonyl]-2(1H)pyrazinone]
70: Plant response rating, Pigweed ([9]; 500 g ai/ha) | Plant response rating, Velvetleaf ([10]; 125 g ai/ha)
60: Plant response rating, Morningglory ([16]; 125 g ai/ha) | Plant response rating, Sedge, Umbrella ([17]; 250 g ai/ha) | Plant response rating, Ducksalad ([18]; 125 g ai/ha)
0: Plant response rating, Pigweed ([1]; 125 g ai/ha) | Plant response rating, Velvetleaf ([2]; 125 g ai/ha) | Plant response rating, Crabgrass, Large ([3]; 125 g ai/ha) | Plant response rating, Wheat ([4]; 125 g ai/ha) | Plant response rating, Wheat ([4]; 500 g ai/ha) | Plant response rating, Corn (corn (Zea mays) [5]; 125 g ai/ha) | Plant response rating, Corn (corn (Zea mays) [5]; 500 g ai/ha) | Plant response rating, Foxtail, Giant ([6]; 125 g ai/ha) | Plant response rating, Barnyardgrass ([7]; 125 g ai/ha) | Plant response rating, Morningglory ([8]; 125 g ai/ha) | Plant response rating, Crabgrass, Large ([11]; 125 g ai/ha) | Plant response rating, Wheat ([12]; 125 g ai/ha) | Plant response rating, Wheat ([12]; 500 g ai/ha) | Plant response rating, Corn (corn (Zea mays) [13]; 125 g ai/ha) | Plant response rating, Corn (corn (Zea mays) [13]; 500 g ai/ha) | Plant response rating, Foxtail, Giant ([14]; 125 g ai/ha) | Plant response rating, Barnyardgrass ([15]; 125 g ai/ha) | Plant response rating, Rice (rice (Oryza sativa); 31 g ai/ha) | Plant response rating, Rice (rice (Oryza sativa); 62 g ai/ha) | Plant response rating, Rice (rice (Oryza sativa); 125 g ai/ha) | Plant response rating, Rice (rice (Oryza sativa); 250 g ai/ha) | Plant response rating, Sedge, Umbrella ([17]; 31 g ai/ha) | Plant response rating, Sedge, Umbrella ([17]; 62 g ai/ha) | Plant response rating, Ducksalad ([18]; 31 g ai/ha) | Plant response rating, Ducksalad ([18]; 62 g ai/ha) | Plant response rating, Barnyardgrass ([19]; 31 g ai/ha, scale 0 to 100) | Plant response rating, Barnyardgrass ([19]; 62 g ai/ha, scale 0 to 100) | Plant response rating, Barnyardgrass ([19]; 125 g ai/ha, scale 0 to 100) | Plant response rating, Barnyardgrass [19, 20]
50: Plant response rating, Crabgrass, Large ([3]; 500 g ai/ha)
90: Plant response rating, Velvetleaf ([2]; 500 g ai/ha) | Plant response rating, Morningglory ([16]; 500 g ai/ha)
20: Plant response rating, Foxtail, Giant ([14]; 500 g ai/ha) | Plant response rating, Sedge, Umbrella ([17]; 125 g ai/ha)
30: Plant response rating, Foxtail, Giant ([6]; 500 g ai/ha) | Plant response rating, Pigweed ([9]; 125 g ai/ha) | Plant response rating, Crabgrass, Large ([11]; 500 g ai/ha) | Plant response rating, Barnyardgrass ([15]; 500 g ai/ha)
80: Plant response rating, Pigweed ([1]; 500 g ai/ha) | Plant response rating, Morningglory ([8]; 500 g ai/ha) | Plant response rating, Ducksalad ([18]; 250 g ai/ha)
40: Plant response rating, Barnyardgrass ([7]; 500 g ai/ha)
100: Plant response rating, Velvetleaf ([10]; 500 g ai/ha)

Source: patent US20140024527A1, “HERBICIDAL PYRAZINONES” (E I DU DE NEMOURS AND COMPANY, priority 2011, published 2014)
